In ChEMBL document CHEMBL4651402, “Screening of ~5500 FDA-approved drugs and clinical candidates for anti-SARS-CoV-2 activity” (2021):
Numbered stars: 1 amine (or outer) side, 2 acyl side, 3 side chain; on linkers, the order of the positions; unused ones are H or OH. Bridge positions count the residues as written; N and C are the ends. Square brackets hold non-standard residues; d marks the D form. Peptide text beside a SMILES is read from it. * marks the point of attachment. X1 = NC1=N[C@@H]([C@H](N[*:1])C(=O)[*:2])C[C@H](O)N1; ΔAla(Z-3-ureido) = NC(=O)N/C=C(\N)C(=O)O; β3hOrn = NCCC[C@H](N)CC(=O)*; Dap = NC[C@H](N)C(=O)O

Tested on: SARS-CoV-2
Assay: microbe, parasite or virus in culture
Settings: Severe acute respiratory syndrome coronavirus 2, Vero C1008, 48 h

Row | Compound | IC50 [µM] | IC50 (read-out: pIC50 (converted)) [µM]
1 | C[C@H](CS)C(=O)N1CCC[C@H]1C(=O)O [CAPTOPRIL] | > 20 | > 20
2 | CCOP(=O)(Cc1ccc(-c2nc3ccccc3s2)cc1)OCC [FOSTEDIL] | > 20 | > 20
3 | Cc1nc(C(=O)NCC(=O)O)c(O)c2ccc(Oc3ccccc3)cc12 [ROXADUSTAT] | > 20 | > 20
4 | Oc1ccc(Cl)cc1 [PARACHLOROPHENOL] | > 20 | > 20
5 | O=C(CCCN1CCC(O)(c2ccc(Br)cc2)CC1)c1ccc(F)cc1 [BROMPERIDOL] | > 20 | > 20
6 | O=C(Nc1ccccc1)c1ccccc1O [SALICYLANILIDE] | > 20 | > 20
7 | CCCCCCCCCCCCN1CCCCCC1=O [LAUROCAPRAM] | > 20 | > 20
8 | O=C(/C=C/c1ccc(O)c(O)c1)OC(Cc1ccc(O)c(O)c1)C(=O)O (stereo unspecified) | > 20 | > 20
9 | C=CCc1ccccc1OC[C@@H](O)CNC(C)C | > 20 | > 20
10 | CC(=O)O[C@H]1C[C@@]2(C)[C@@H](C[C@@H](O)[C@H]3[C@@]4(C)CC[C@@H](O)[C@@H](C)[C@@H]4CC[C@@]32C)/C1=C(\CCC=C(C)C)C(=O)O [FUSIDIC ACID] | > 20 | > 20
11 | O=C(Nc1ccc([N+](=O)[O-])cc1Cl)c1cc(Cl)ccc1O [NICLOSAMIDE] | > 20 | > 20
12 | C[C@H](N)[C@H](O)c1ccc(O)c(O)c1 [LEVONORDEFRIN] | > 20 | > 20
13 | COc1ccnc(C[S+]([O-])c2nc3cc(-n4cccc4)ccc3[nH]2)c1C (stereo unspecified) [ILAPRAZOLE] | > 20 | > 20
14 | CC1CCN(CCCC(=O)c2ccc(F)cc2)CC1 [MELPERONE] | > 20 | > 20
15 | CC(C)NNC(=O)c1ccncc1 [IPRONIAZID] | > 20 | > 20
16 | O=C1C=CC(=O)c2c1ccc1c2ccc2ccccc21 | > 20 | > 20
17 | O=C(/C=C/c1ccc(O)c(O)c1)O[C@H](Cc1ccc(O)c(O)c1)C(=O)O [ROSMARINIC ACID] | > 20 | > 20
18 | Cn1c(=O)c2c(ncn2CC2OCCO2)n(C)c1=O [DOXOFYLLINE] | > 20 | > 20
19 | O=C(OOC(=O)c1ccccc1)c1ccccc1 [BENZOYL PEROXIDE] | > 20 | > 20
20 | O=C(CN1C(=O)c2ccccc2S1(=O)=O)Nc1ccc(O)cc1 | > 20 | > 20
21 | S=C(NCc1ccc2c(c1)OCO2)N1CCN(c2ncnc3c2oc2ccccc23)CC1 [AMUVATINIB] | > 20 | > 20
22 | CN1C(=O)CN2CCc3ccccc3C2c2cc(Cl)ccc21 (stereo unspecified) [CLAZOLAM] | > 20 | > 20
23 | COc1ccc(-c2nc(C(F)(F)F)[nH]c2-c2ccc(OC)cc2)cc1 [FLUMIZOLE] | > 20 | > 20
24 | OC1CN(CCCOCCc2ccc3sccc3c2)C1 [T-817] | > 20 | > 20
25 | CC(C)(C(=O)O)c1ccc(C(O)CCCN2CCC(C(O)(c3ccccc3)c3ccccc3)CC2)cc1 (stereo unspecified) [FEXOFENADINE] | > 20 | > 20
26 | CC(=O)Oc1ccc2c(c1)CCC1C2CCC2(C)C(O)CCC12 (stereo unspecified) | > 20 | > 20
27 | CC1(C)C(C=C(Cl)Cl)C1C(=O)OC(C#N)c1cccc(Oc2ccccc2)c1 (stereo not drawn) [ALPHA-CYPERMETHRIN] | > 20 | > 20

Row | Compound | IC50 [µM] | IC50 (read-out: pIC50 (converted)) [µM]
28 | Cc1c(C(=O)N2CCOc3ccc(-c4ccc(N)nc4)cc3C2)ccc(S(C)(=O)=O)c1F | > 20 | > 20
29 | NC(=O)CCC/N=C(/c1ccc(Cl)cc1)c1cc(F)ccc1O | > 20 | > 20
30 | CCNC(=O)OC1CCN(c2nncc3cc(OC)c(OC)cc23)CC1 [CARBAZERAN] | > 20 | > 20
31 | CC(=O)OCC(=O)[C@@]1(O)CC[C@H]2[C@@H]3CCC4=CC(=O)CC[C@]4(C)[C@H]3[C@@H](O)C[C@@]21C [HYDROCORTISONE ACETATE] | > 20 | > 20
32 | O=C(O)CNC(=O)c1ccccc1 [HIPPURIC ACID] | > 20 | > 20
33 | Cc1ccccn1 | > 20 | > 20
34 | COc1ccc2c(c1)CCC1C2CCC2(C)C(O)CCC12 (stereo unspecified) | > 20 | > 20
35 | CC(C)CCC[C@@H](C)[C@H]1CC[C@H]2[C@@H]3CC=C4CC(O)CC[C@]4(C)[C@H]3CC[C@]12C (stereo partly specified) | > 20 | > 20
36 | CC1C2Cc3ccc(O)cc3C1(C)CCN2C (stereo unspecified) | > 20 | > 20
37 | CCCn1c(=O)c2[nH]c(C3CC4CC3[C@H]3O[C@@H]43)nc2n(CCC)c1=O (stereo partly specified) | > 20 | > 20
38 | CCN(CC)CCNC(=O)c1cc(Cl)c(N)cc1OC [METOCLOPRAMIDE] | > 20 | > 20
39 | Cc1cc2c(F)c(Oc3ncnn4cc(OC[C@@H](C)OC(=O)[C@H](C)N)c(C)c34)ccc2[nH]1 [BRIVANIB ALANINATE] | > 20 | > 20
40 | NCC(O)c1ccc(O)cc1 (stereo unspecified) [OCTOPAMINE] | > 20 | > 20
41 | NCCC[C@H](N)CC(=O)N[C@H]1CNC(=O)[C@H]([C@H]2C[C@H](O)NC(N)=N2)NC(=O)/C(=C/NC(N)=O)NC(=O)[C@H](CO)NC(=O)[C@H](CO)NC1=O [VIOMYCIN] (β3hOrn-[Dap]SS[ΔAla(Z-3-ureido)][X1]; lactam 1-C) | > 20 | > 20
42 | COC(=O)Nc1nc2cc(C(=O)c3cccs3)ccc2[nH]1 [NOCODAZOLE] | > 20 | > 20
43 | Cc1c(C)c2c(c(C)c1O)CCC(C)(C(=O)O)O2 (stereo unspecified) [TROLOX] | > 20 | > 20
44 | CCNC1C2CCC(C2)C1c1ccccc1 (stereo unspecified) [FENCAMFAMIN] | > 20 | > 20
45 | Cn1c(=O)[nH]c2ncn(C)c2c1=O [PARAXANTHINE] | > 20 | > 20
46 | C#Cc1cncc([C@@H]2CCCN2C)c1 [ALTINICLINE] | > 20 | > 20
47 | c1cncc([C@@H]2CCCCN2)c1 [ANABASINE] | > 20 | > 20
48 | CCCC(=O)O[C@]1(C(=O)COC(C)=O)CC[C@H]2[C@@H]3C[C@H](F)C4=CC(=O)C=C[C@]4(C)[C@@]3(F)[C@@H](O)C[C@@]21C [DIFLUPREDNATE] | > 20 | > 20
49 | CO[C@@H]1[C@@H](O[C@@H]2O[C@H](C)[C@@H](O[C@H]3C[C@@](C)(O)[C@@H](OC(=O)CC(C)C)[C@H](C)O3)[C@H](N(C)C)[C@H]2O)[C@@H](CC=O)C[C@@H](C)[C@@H](O)/C=C/C=C/C[C@@H](C)OC(=O)C[C@H]1OC(C)=O [JOSAMYCIN] | > 20 | > 20
50 | c1ccc2c(c1)[nH]c1cnccc12 [NORHARMANE] | > 20 | > 20
51 | NC(=O)c1ccc(N(C(N)=O)c2c(F)cccc2F)nc1-c1ccc(F)cc1F [VX-702] | > 20 | > 20
52 | O=C(C1CCCCC1)N1CC(=O)N2CCc3ccccc3C2C1 (stereo unspecified) [PRAZIQUANTEL] | > 50.1 | > 50.1
53 | CC(=O)/N=c1/sc(S(N)(=O)=O)nn1C [METHAZOLAMIDE] | > 20 | > 20
